From US20190192517A1, “TREATMENT OF SQUAMOUS CELL CARCINOMAS WITH INHIBITORS OF ERK” (Kura Oncology, Inc., priority 2016, published 2019)

How the values were obtained:
[1] = test system: LU1868 primary human NSCLC tissues; test: Patient-derived xenograft model of squamous NSCLC: LU1868; type: in vivo, human (in BALB/C nude mice); details: daily and Q2D dosing schedules
Description: (§1) Example 1: Efficacy studies in patient-derived xenograft models of squamous NSCLC. Tumor fragments (2-4 mm in diameter) from stock mice inoculated with LU1868 or LU0009 primary human NSCLC tissues were inoculated subcutaneously into BALB/C nude mice. The mice were stratified into groups when the average tumor size reached about 200 mm^3. […] Tumor volumes were measured twice weekly in two dimensions using a caliper, with volume expressed in mm^3 (mean+/−SEM) using the formula […], where a and b are the long and short diameters of the tumor, respectively.
(§2) Responses were classified as “tumor stasis” if tumors grew ≤10% during the dosing period. Many SCC patient-derived xenograft models retain comorbid properties of the original tumors from which they were derived, such as induction of cachexia and spontaneous ulceration, that negatively impact the physiology of the host animal and reduce tolerability to exogenous agents, such as therapeutic drugs. […] Dosing holidays were necessary during periods when the mouse had lost ≥10% of body weight until the weight of the mouse returned to baseline. […] Where TGI was 70-85% and no doses were missed, activity was classified as “borderline”, and any TGI levels below 70% were classified as “resistant”.

[2] = test system: LU0009 primary human NSCLC tissues; test: Patient-derived xenograft model of squamous NSCLC: LU0009; type: in vivo, human (in BALB/C nude mice); details: Q2D or 2QW schedules
Description: as §1, §2

[3] = test system: ES0191 primary human ESCC tissues; test: Patient-derived xenograft model of ESCC: ES0191; type: in vivo, human (in BALB/C nude mice); details: weekly schedule
Description: (§3) Example 2: Efficacy studies in patient-derived xenograft models of ESCC. The general procedure outline in Example 1 was followed. […] Gene copy number and gene expression were assessed as described in Example 1.

[4] = test system: ES0215 primary human ESCC tissues; test: Patient-derived xenograft model of ESCC: ES0215; type: in vivo, human (in BALB/C nude mice); details: Q2D or QW schedules
Description: as §3

[5] = test system: HN0635 primary human HNSCC tissues; test: Patient-derived xenograft model of HNSCC: HN0635; type: in vivo, human (in BALB/C nude mice); details: Q2D or QW schedules
Description: (§4) Example 3: Efficacy studies in patient-derived xenograft models of HNSCC. The general procedure outline in Example 1 was followed. […] Gene copy number and gene expression were assessed as described in Example 1.

[6] = test system: HN2221 primary human HNSCC tissues; test: Patient-derived xenograft model of HNSCC: HN2221; type: in vivo, human (in BALB/C nude mice); details: weekly dosing
Description: as §4

[7] = test system: HN1391 primary human HNSCC tissues; test: Patient-derived xenograft model of HNSCC: HN1391; type: in vivo, human (in BALB/C nude mice)
Description: Example 5: Efficacy studies in patient-derived xenograft modes of HNSCC. The general procedure outline in Example 1 was followed. […] Dosing was discontinued to observe tumor regrowth, then restarted on the same dosing schedule on day 56. […] This activity was maintained for 25 days on treatment at either 120 mg/kg Q2D or 300 mg/kg QW. When dosing was discontinued, tumor stasis was maintained for 10-20 days, but eventually all of the tumors regrew. Regrowth was allowed to proceed for 2-3 weeks, until some individual tumors exceeded 1600 mm^3, then therapy was restarted. Strikingly, all of the retreated tumors regressed, decreasing in size by 27-66% in the subsequent 35 days.

[8] = test system: HN3067 primary human HNSCC tissues; test: Patient-derived xenograft model of HNSCC: HN3067; type: in vivo, human (in BALB/C nude mice)
Source text: Example 6: Efficacy studies in patient-derived xenograft models of HNSCC. The general procedure outline in Example 1 was followed. […] Dosing was discontinued to observe tumor regrowth.

[9] = test system: HNSCC patient-derived xenograft models exhibiting CCND1 amplification; test: Efficacy studies in patient-derived xenograft models of HNSCC (Example 14); type: in vivo, human (in BALB/C nude mice); details: 300-350 mg/kg QW PO
Source text: Example 14: Efficacy studies in patient-derived xenograft models of HNSCC. The general procedure outline in Example 1 was followed.

[10] = test system: A375 LacZ; test: Models of clinical B-Raf and MEK inhibitor resistance, CellTiter-Glo 72 hours: A375 LacZ; type: cell-based; details: Homo sapiens, A-375
Description: (§5) Example 11: Efficacy studies in models of clinical B-Raf and MEK inhibitor resistance. Human melanoma cell lines were obtained from ATCC or DSMZ (e.g., A375, MM383 BRAF V600E and MM127 NRAS Q61R). A375 cells were engineered to overexpress LacZ, BRAF V600E (BRAF V600E amp), or the NRAS mutant NRAS Q61R. The cell lines were grown to confluency, washed with Tumor Cell Media (DMEM+10% FBS or IMDM+20% FBS), and plated in 90 μL Tumor Cell Media at 5,000-10,000 cells/well. […] Plates were incubated for 72 hours at 37° C. and 5% CO2. A volume of 100 μL of CellTiter-Glo® reagent was added to each well and plates were mixed for 2 minutes on an orbital shaker. The plates were allowed to stand at room temperature for 20 minutes before measuring the luminescent signal of each well.

[11] = test system: A375 NRAS Q61R; test: Models of clinical B-Raf and MEK inhibitor resistance, CellTiter-Glo 72 hours: A375 NRAS Q61R; type: cell-based; details: Homo sapiens, A-375
Description: as §5

[12] = test system: A375 V600E amp (BRAF V600E amp); test: Models of clinical B-Raf and MEK inhibitor resistance, CellTiter-Glo 72 hours: A375 V600E amp; type: cell-based; details: Homo sapiens, A-375
Description: as §5, with “Human” for “Example 11: Efficacy studies in models of clinical B-Raf and MEK inhibitor resistance. Human”

[13] = molecular target: T1, ERK2 enzyme (Homo sapiens, UniProt P28482); test: Inhibition assay of ERK (Z'-LYTE kinase assay, Ser/Thr 3 peptide, 100 μM ATP); type: biochemical; details: in vitro
T1 construct: purchased Life Technologies
Description: Example 9: Inhibition Assays of ERK. The inhibition of ERK activity by the compounds disclosed herein was determined using the Z′-LYTE kinase assay kit (Life Technologies) with a Ser/Thr 3 peptide substrate (Life Technologies) according to manufacturer's instructions. […] The IC50 values for the compounds were determined with 3-fold serial dilutions in duplicate. The compounds were first diluted in 1:3 dilutions in 100% DMSO at 100× the desired concentration, and then further diluted (1:25) in 20 mM HEPES buffer (Invitrogen) to make 4× solutions prior to adding to the enzyme solution. The final DMSO concentration in the assay was 1%. Final reaction volume was […] in 384-well plates. Kinase reactions were conducted for 1 hour followed by the assay development reaction (1 hour) in a 384 well plate format (20 μL/well).

T1 sequence (P28482 whole entry): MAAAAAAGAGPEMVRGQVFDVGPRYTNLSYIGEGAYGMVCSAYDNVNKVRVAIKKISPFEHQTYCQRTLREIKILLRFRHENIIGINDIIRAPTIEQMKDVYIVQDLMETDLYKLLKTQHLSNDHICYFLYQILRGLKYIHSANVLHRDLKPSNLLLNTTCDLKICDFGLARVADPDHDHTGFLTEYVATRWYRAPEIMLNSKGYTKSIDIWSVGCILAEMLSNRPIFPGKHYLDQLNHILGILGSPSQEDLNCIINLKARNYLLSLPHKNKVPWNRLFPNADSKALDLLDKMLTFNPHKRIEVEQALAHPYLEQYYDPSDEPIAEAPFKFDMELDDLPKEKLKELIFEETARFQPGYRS

O=C1Nc2cc3[nH]nc(-c4ccncc4)c3cc2CN1Cc1ccccc1 [KO-947]
Tumor response (tumor volume) [1]: tumor regression
Tumor response (tumor volume) [2]: only modest inhibition of tumor growth
Tumor response (tumor volume) [3]: tumor regression was initially seen on a weekly schedule, with some regrowth late in the experiment resulting ultimately in tumor stasis
Tumor response (tumor volume) [4]: only modest inhibition of tumor growth
Animals with tumor regression [5]: 5 of 6
Tumor response (tumor volume) [6]: only modest inhibition of tumor growth
Tumor response when treatment was initiated ([7]; 120 mg/kg Q2D or 300 mg/kg QW, maintained for 25 days): regression and tumor stasis
Time tumor stasis was maintained after dosing was discontinued ([7]; after 25 days on treatment): 10 to 20 days
Decrease in size of retreated tumors ([7]; therapy restarted on day 56, subsequent 35 days): 27-66%
Tumor response (tumor volume) ([8]; all six animals, 120 mg/kg Q2D or 300 mg/kg QW, 40 days): robust tumor regression
Animals with no evidence of remaining viable tumor ([8]; sixty days after dosing was discontinued): 4 of 6
Models responsive to treatment [9]: Four out of six

CCCS(=O)(=O)Nc1ccc(F)c(C(=O)c2c[nH]c3ncc(-c4ccc(Cl)cc4)cc23)c1F [Vemurafenib]
IC50 [10]: 4200 nM
IC50 [11]: > 10000 nM
IC50 [12]: > 10000 nM

CC(=O)Nc1cccc(-n2c(=O)n(C3CC3)c(=O)c3c(Nc4ccc(I)cc4F)n(C)c(=O)c(C)c32)c1 [Trametinib]
IC50 [10]: 7 nM
IC50 [11]: 77 nM
IC50 [12]: 300 nM

CCN1C[C@@H](N2Cc3cc4c(-c5ccnc(C)c5)n[nH]c4cc3NC2=O)[C@H](c2ccccc2)C1 (racemic) [Compound 278]
IC50 [13]: < 500 nM

CC(c1ccccc1)c1cc2cc3c(-c4ccnc(N5CCOCC5)c4)n[nH]c3cc2[nH]c1=O (stereo not shown) [Compound 325]
IC50 [13]: < 500 nM

Cc1cc(-c2n[nH]c3cc4c(cc23)CN([C@@H]2CCCN(Cc3ccc(C)s3)C2)C(=O)N4)ccn1 [Compound 245]
IC50 [13]: < 500 nM

Cc1cc(-c2n[nH]c3cc4c(cc23)CN([C@@H]2CN(CC(F)F)C[C@H]2c2ccccc2)C(=O)N4)ccn1 (racemic) [Compound 362]
IC50 [13]: < 500 nM

Cc1cc(-c2n[nH]c3cc4c(cc23)CN([C@@H]2CN(C)C[C@H]2c2ccccc2)C(=O)N4)ccn1 (racemic) [Compound 241]
IC50 [13]: < 500 nM

Cc1cc(-c2n[nH]c3cc4c(cc23)CN([C@@H]2CCCN(CC(F)(F)F)C2)C(=O)N4)cc(C)n1 [Compound 244]
IC50 [13]: < 500 nM

Cc1cc(-c2n[nH]c3cc4c(cc23)CN(Cc2cccc(Cl)c2)C(=O)N4)ccn1 [Compound 4]
IC50 [13]: < 500 nM

Cc1cc(-c2n[nH]c3cc4c(cc23)CN([C@@H]2CCN(CC(F)(F)F)C2)C(=O)N4)cc(C)n1 [Compound 237]
IC50 [13]: < 500 nM

Cc1ccc(-c2n[nH]c3cc4c(cc23)CN([C@@H]2CCCN(Cc3ccccc3)C2)C(=O)N4)cn1 [Compound 275]
IC50 [13]: < 500 nM

Cc1cc(-c2n[nH]c3cc4c(cc23)CN([C@@H]2CCCN(Cc3ccc(F)cc3)C2)C(=O)N4)ccn1 [Compound 151]
IC50 [13]: < 500 nM
